Data from publication PMC7380166, “How to Study the Metabolism of New Psychoactive Substances for the Purpose of Toxicological Screenings—A Follow-Up Study Comparing Pooled Human Liver S9, HepaRG Cells, and Zebrafish Larvae” (Frontiers in Chemistry, 2020).

Key:
[1] = Incubations with pooled human liver S9 fraction (pHLS9), metabolite identification by LC-HRMS/MS; format: in vitro ADME; conditions: 25 μM 4F-MDMB-BINACA, one replicate of n = 2, n.d. = not detected; for Absolute peak area, pHLS9 1 h [25 μM]: 1 h incubation; for Absolute peak area, pHLS9 6 h [25 μM]: 6 h incubation
Experimental: According to published procedures (Richter et al., [2017b], [2019b]; Caspar et al., [2018b]; Wagmann et al., [2019b],[c]), the final incubation volume per reaction tube was 150 μl, with a final protein concentration of 2 mg/ml. The given concentrations represent final concentrations. A preincubation for 10 min at 37°C with UGT reaction mixture solution B (containing alamethicin, 25 μg/ml), MgCl2 (2.5 mM), NADP^+ (0.6 mM), isocitrate (2.5 mM), isocitrate dehydrogenase (0.8 U/ml), superoxide dismutase (100 U/ml), acetyl coenzyme A (0.1 mM), phosphate buffer (90 mM, pH 7.4), and pHLS9 (2 mg/ml) was done. Afterwards, UGT reaction mixture solution A (containing UDP glucuronic acid, 2.5 mM), PAPS (40 μM), SAM (1.2 mM), dithiothreitol (1 mM), and glutathione (10 mM) were added, as well as 25 μM 4F-MDMB-BINACA to start the reactions. The mixture was incubated for 360 min. Total amount of organic solvent in incubation mixtures was <2% (Chauret et al., [1998]). After 60 min, an aliquot of the reaction mixture (60 μl) was transferred in another reaction tube containing 20 μl of ice-cold acetonitrile to terminate the reactions. The remaining aliquot (90 μl) was incubated for an additional 300 min, and then the reactions were stopped by adding 30 μl of ice-cold acetonitrile. Thereafter, the reaction tubes were cooled at −20°C for 30 min prior to centrifugation at 18,407 × g for 2 min. The supernatants (50 μl) were transferred into autosampler vials, and 1 μl was injected onto the LC-HRMS/MS system. Control samples without pHLS9 and blank samples without substrate were prepared to confirm the absence of non-metabolically formed and interfering compounds, respectively. All incubations were performed in duplicate.
According to a previous study (Richter et al., [2019a]), a Thermo Fisher Scientific (TF, Dreieich, Germany) Dionex UltiMate 3000 Rapid Separation (RS) UHPLC system with a quaternary UltiMate 3000 RS pump and an UltiMate 3000 RS autosampler controlled by the TF Chromeleon software version 6.8 was used. The LC system was coupled to an Orbitrap-based TF Q-Exactive Plus equipped with a heated electrospray ionization II (HESI-II) source. Calibration was done prior to analysis with a Positive Cal Mix (Supelco, Bellefonte, PA, USA) at a flow rate of 3 μl/min using a syringe pump. The conditions of the LC system were as follows: TF Accucore PhenylHexyl column (100 × 2.1 mm, 2.6 μm particle size); gradient elution with 2 mM ammonium formate solution containing 0.1% (v/v) formic acid (eluent A) and 2 mM ammonium formate solution in acetonitrile/methanol (50:50, v/v) containing 0.1% (v/v) formic acid, and 1% (v/v) water (eluent B). […] The following gradient was used: 0–1.0 min hold 1% B, 1–10 min to 99% B, 10–11.5 min hold 99% B, 11.5–13.5 min hold 1% B. The HESI-II source conditions were as follows: ionization mode, positive; heater temperature, 320°C; ion transfer capillary temperature, 320°C; sheath gas, 60 arbitrary units (AU); auxiliary gas, 10 AU; spray voltage, 4.00 kV; and S-lens RF level, 50.0. Mass spectrometry experiments were performed using high-resolution (HR) full scan mode and a targeted MS^2 mode with an inclusion list for each NPS. The inclusion list contained m/z values of metabolites, which were likely to be formed for example hydroxy, oxo, carboxy, dealkyl, demethylenylated, and defluorinated metabolites (phase I) as well as sulfates and glucuronides (phase II) and combinations of them. Full scan settings were as follows: resolution, 35,000; automatic gain control (AGC) target, 3e6; maximum injection time (IT), 120 ms; scan ranges, 3,4-DMA-NBOMe m/z 100–700, ephylone m/z 200–600, 4F-MDMB-BINACA m/z 150–700, 4F-PHP m/z 200–600, and 1P-LSD m/z 250–700. The settings for the targeted MS^2 mode with the respective inclusion lists were as follows: resolution, 17,500; AGC target, 2e5; maximum IT, 250 ms; loop count, 5; isolation window, 1.0 m/z; stepped normalized collision energy (NCE), 17.5, 35, 52.5%; pick others, enabled. […]

HepaRG cells = assay: Incubations with HepaRG cells, metabolite identification by LC-HRMS/MS; format: in vitro ADME, human; conditions: 24 h, cell culture medium, one replicate of n = 3, n.d. = not detected; for Absolute peak area, HepaRG [25 μM]: 25 μM parent NPS; for Absolute peak area, HepaRG [250 μM]: 250 μM parent NPS
zebrafish larvae = assay: Zebrafish larvae exposure, metabolite identification by LC-HRMS/MS; conditions: larvae 4 dpf, 24 h, larvae extract, one replicate of n = 3, n.d. = not detected; for Absolute peak area, Zebrafish larvae [25 μM]: 25 μM 4F-MDMB-BINACA in medium; for Absolute peak area, Zebrafish larvae [100 µM]: 100 µM parent NPS in medium
[2] = human biosamples after intake of ephylone and 4F-PHP; ref Wagmann et al., [2019b]; cited from earlier work
[3] = ephylone and metabolites, n = 2, according to literature; ref Wagmann et al., 2019a; cited from earlier work

Structure (SMILES): CC(C)(C)[C@H](NC(=O)c1n[nH]c2ccccc12)C(=O)O [MB3]
- Absolute peak area, pHLS9 1 h [25 μM] [1]: 9.07E+05
- Absolute peak area, pHLS9 6 h [25 μM] [1]: 1.27E+06
- Absolute peak area, HepaRG [25 μM] (HepaRG cells): 3.99E+05
- Absolute peak area, HepaRG [250 μM] (HepaRG cells): 6.92E+06

Structure (SMILES): CC1(C)COC(=O)C1NC(=O)c1nn(CCCCO)c2ccccc12 (centres unmarked) [MB5]
- Absolute peak area, Zebrafish larvae [25 μM] (zebrafish larvae): 9.42E+05
- Absolute peak area, pHLS9 6 h [25 μM] [1]: 1.26E+06
- Absolute peak area, HepaRG [250 μM] (HepaRG cells): 2.40E+05

Structure (SMILES): CC(C)(C)[C@H](NC(=O)c1nn(CCCCO)c2ccccc12)C(=O)O [MB7]
- Absolute peak area, Zebrafish larvae [25 μM] (zebrafish larvae): 5.96E+04
- Absolute peak area, pHLS9 6 h [25 μM] [1]: 1.91E+06
- Absolute peak area, HepaRG [25 μM] (HepaRG cells): 1.25E+06
- Absolute peak area, HepaRG [250 μM] (HepaRG cells): 1.34E+07

Structure (SMILES): CC1(C)COC(=O)C1NC(=O)c1nn(CCCC(=O)O)c2ccccc12 (centres unmarked) [MB9]
- Absolute peak area, Zebrafish larvae [25 μM] (zebrafish larvae): 2.53E+06
- Absolute peak area, pHLS9 6 h [25 μM] [1]: 1.57E+05

Structure (SMILES): CC(C)(CO)C(NC(=O)c1nn(CCCCF)c2ccccc12)C(=O)O (centres unmarked) [MB13]
- Absolute peak area, Zebrafish larvae [25 μM] (zebrafish larvae): 4.57E+05
- Absolute peak area, pHLS9 1 h [25 μM] [1]: 7.30E+03
- Absolute peak area, pHLS9 6 h [25 μM] [1]: 6.42E+05
- Absolute peak area, HepaRG [250 μM] (HepaRG cells): 3.13E+07

Structure (SMILES): COC(=O)[C@@H](NC(=O)c1nn(CCCC(=O)O)c2ccccc12)C(C)(C)C [MB15]
- Absolute peak area, Zebrafish larvae [25 μM] (zebrafish larvae): 2.60E+07
- Absolute peak area, pHLS9 1 h [25 μM] [1]: 2.16E+06
- Absolute peak area, pHLS9 6 h [25 μM] [1]: 3.34E+06
- Absolute peak area, HepaRG [25 μM] (HepaRG cells): 1.15E+04
- Absolute peak area, HepaRG [250 μM] (HepaRG cells): 8.00E+06

Structure (SMILES): CCCC(N)C(=O)c1ccc2c(c1)OCO2 (centres unmarked) [ME1]
- Absolute peak area, Zebrafish larvae [100 µM] (zebrafish larvae): 4.12E+06
- Signals with the highest abundance in human plasma and/or urine [2]: highest ephylone-related signals
- Absolute peak area, HepaRG [25 μM] (HepaRG cells): 4.14E+06
- Absolute peak area, HepaRG [250 μM] (HepaRG cells): 2.21E+07
- Detection in pHLS9 [25 µM] [3]: +

Structure (SMILES): CCCC(NCC)C(=O)c1ccc(O)c(O)c1 (centres unmarked) [ME2]
- Absolute peak area, Zebrafish larvae [100 µM] (zebrafish larvae): 4.44E+06
- Signals with the highest abundance in human plasma and/or urine [2]: highest ephylone-related signals
- Absolute peak area, HepaRG [25 μM] (HepaRG cells): 1.72E+05
- Absolute peak area, HepaRG [250 μM] (HepaRG cells): 6.37E+05
- Detection in pHLS9 [25 µM] [3]: +
